Data on 31 compounds can be found in US7592347B2, “Piperazine derivates and their use for the treatment of neurological and psychiatric diseases” (Glaxo Group Limited, priority 2003, dated 2009).

Counter-ions that a name gives are not always drawn. Where only a bound is given, the exact number is not on record here.

The target of this experiment is T1, histamine H3 receptor (Homo sapiens, UniProt Q9Y5N1).
T1 construct: expressed in transfected cells; host or cells: CHO K1 cells carrying pSwitch, transfected with pGeneH3 and induced with mifepristone; clone 3H3; membranes
The experiment is described as follows: Histamine H3 functional antagonist assay ([35S]GTPγS SPA, membranes of CHO K1 cells expressing human H3). Type of experiment: biochemical. The conditions noted are these: functional antagonism of histamine (0.3 μM) stimulated [35S]GTPγS binding, membranes of CHO K1 cells with human histamine H3. On the procedure:
A membrane preparation containing histamine H3 receptors may be prepared in accordance with the following procedures:
Ligated DNA was transformed into competent DH5α E. coli host bacterial cells and plated onto Luria Broth (LB) agar containing Zeocin™ (an antibiotic which allows the selection of cells expressing the sh ble gene which is present on pGene and pSwitch) at 50 μg ml^−1. Colonies containing the re-ligated plasmid were identified by restriction analysis. DNA for transfection into mammalian cells was prepared from 250 ml cultures of the host bacterium containing the pGeneH3 plasmid and isolated using a DNA preparation kit (Qiagen Midi-Prep) as per manufacturers guidelines (Qiagen).
CHO K1 cells previously transfected with the pSwitch regulatory plasmid (InVitrogen) were seeded at 2×10e6 cells per T75 flask in Complete Medium, containing Hams F12 (GIBCOBRL, Life Technologies) medium supplemented with 10% v/v dialysed foetal bovine serum, L-glutamine, and hygromycin (100 μg ml^−1), 24 hours prior to use. Plasmid DNA was transfected into the cells using Lipofectamine plus according to the manufacturers guidelines (InVitrogen). 48 hours post transfection cells were placed into complete medium supplemented with 500 μg ml^−1 Zeocin™.
10-14 days post selection 10 nM Mifepristone (InVitrogen), was added to the culture medium to induce the expression of the receptor. […] Approximately 1×10e7 cells were examined for receptor expression by staining with a rabbit polyclonal antibody, 4a, raised against the N-terminal domain of the histamine H3 receptor, incubated on ice for 60 minutes, followed by two washes in sorting medium. […] Following two further washes with Sorting Medium, cells were filtered through a 50 μm Filcon™ (BD Biosciences) and then analysed on a FACS Vantage SE Flow Cytometer fitted with an Automatic Cell Deposition Unit. […] Positively stained cells were sorted as single cells into 96-well plates, containing Complete Medium containing 500 μg ml^−1 Zeocin™ and allowed to expand before reanalysis for receptor expression via antibody and ligand binding studies.
All steps of the protocol are carried out at 4° C. and with pre-cooled reagents. The cell pellet is resuspended in 10 volumes of buffer A2 containing 50 mM N-2-hydroxyethylpiperazine-N′-2-ethanesulfonic acid (HEPES)(pH 7.40) supplemented with 10e−4M leupeptin (acetyl-leucyl-leucyl-arginal; Sigma L2884), 25 μg/ml bacitracin (Sigma B0125), 1 mM ethylenediamine tetra-acetic acid (EDTA), 1 mM phenylmethylsulfonyl fluoride (PMSF) and 2×10e−6M pepstain A (Sigma). The cells are then homogenised by 2×15 second bursts in a 1 litre glass Waring blender, followed by centrifugation at 500 g for 20 minutes. The supernatant is then spun at 48,000 g.for 30 minutes. The pellet is resuspended in 4 volumes of buffer A2 by vortexing for 5 seconds, followed by homogenisation in a Dounce homogeniser (10-15 strokes). At this point the preparation is aliquoted into polypropylene tubes and stored at −70° C. […]
The plate is then incubated on a shaker at room temperature for 30 minutes followed by centrifugation for 5 minutes at 1500 rpm. The plate is read between 3 and 6 hours after completion of centrifuge run in a Wallac Microbeta counter on a 1 minute normalised tritium count protocol. Data is analysed using a 4-parameter logistic equation. Basal activity used as minimum i.e. histamine not added to well.
For orientation: GTPγS resists hydrolysis and so accumulates on activated G proteins.

T1 sequence (Q9Y5N1 whole entry): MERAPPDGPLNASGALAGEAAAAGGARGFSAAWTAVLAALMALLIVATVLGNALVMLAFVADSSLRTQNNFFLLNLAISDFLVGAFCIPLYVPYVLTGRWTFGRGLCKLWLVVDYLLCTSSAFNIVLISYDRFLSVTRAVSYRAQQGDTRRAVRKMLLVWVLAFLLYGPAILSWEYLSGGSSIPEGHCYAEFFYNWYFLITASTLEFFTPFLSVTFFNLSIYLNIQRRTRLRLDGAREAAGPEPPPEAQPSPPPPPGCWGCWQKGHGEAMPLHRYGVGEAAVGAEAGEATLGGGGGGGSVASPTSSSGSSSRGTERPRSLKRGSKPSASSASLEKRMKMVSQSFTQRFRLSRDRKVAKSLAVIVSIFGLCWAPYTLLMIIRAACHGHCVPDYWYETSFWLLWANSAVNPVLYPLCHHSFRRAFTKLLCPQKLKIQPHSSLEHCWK

Broadly, the Kb is the affinity of an antagonist, worked out from how it opposes an agonist. The compound `CC(C)N1CCN(C(=O)C2CCN(c3cnc(C(F)(F)F)cn3)CC2)CC1` [Example E102, 1-Isopropyl-4-[1-(5-trifluoromethyl-pyrazin-2-yl)-piperidine4-carbonyl]-piperazine] gave a Kb of less than 3.16 nM.

In turn, `N#Cc1ccc(N2CCC(C(=O)N3CCCN(C4CCC4)CC3)CC2)cc1Cl` [Example E66, 1-Cyclobutyl-4-[1-(4-cyano-3-chlorophenyl)-piperidine4-carbonyl]-[1,4]-diazepane] showed a Kb of less than 3.16 nM.

In turn, `CC(C)N1CCN(C(=O)C2CCN(c3ccc(C#N)cc3)CC2)C[C@@H]1C` [Example E70, (S)-1-Isopropyl-4-[1-(4-cyanophenyl)-piperidine-4-carbonyl]-2-methylpiperazine] gave a Kb of less than 3.16 nM.

Take `N#Cc1ccc(N2CCC(C(=O)N3CCN(C4CCC4)CC3)CC2)cc1F` [Example E10, 1-Cyclobutyl-4-[1-(4-cyano-3-fluorophenyl)-piperidine-4-carbonyl]-piperazine]: the Kb is less than 3.16 nM.

For `N#Cc1cc(F)c(N2CCC(C(=O)N3CCN(C4CCC4)CC3)CC2)c(F)c1` [Example E11, 1-Cyclobutyl4-[1-(4-cyano-2,6-difluorophenyl)-piperidine-4-carbonyl]-piperazine], the antagonist equilibrium constant (Kb) is less than 3.16 nM.

Consider `N#Cc1ccc(N2CCC(C(=O)N3CCN(C4CCC4)CC3)CC2)cc1` [Example E9, 1-Cyclobutyl-4-[1-(4-cyanophenyl)-piperidine-4-carbonyl]-piperazine], for which the Kb is less than 3.16 nM.

Take `CC(C)N1CCCN(C(=O)C2CCN(c3ccc(OC(F)(F)F)cc3)CC2)CC1` [Example E56, 1-Isopropyl-4-[1-(4-trifluoromethoxyphenyl)-piperidine4-carbonyl]-[1,4]-diazepane]: the Kb was less than 3.16 nM.

Compound `CC(=O)Nc1ccc(N2CCC(C(=O)N3CCCN(C(C)C)CC3)CC2)cc1F` [Example E169, 1-Isopropyl-4-[1-(4-acetamido-3-fluorophenyl)-piperidine4-carbonyl]-[1,4]-diazepane] showed a Kb of less than 3.16 nM.

The compound `CC(C)N1CCCN(C(=O)C2CCN(c3ccc(C#N)c(Cl)c3)CC2)CC1` [Example E40, 1-Isopropyl-4-[1-(4-cyano-3-chlorophenyl)-piperidine-4-carbonyl]-[1,4]-diazepane] had a Kb of less than 3.16 nM.

Turning to `CC(C)N1CCN(C(=O)C2CCN(c3ccc(C#N)cn3)CC2)CC1` [Example E1, 1-Isopropyl-4-[1-(5-cyano-pyridin-2-yl)-piperidine4-carbonyl]-piperazine hydrochloride], the Kb is less than 3.16 nM.

In turn, `CC(C)N1CCCN(C(=O)C2CCN(c3ccc(OC(F)F)cc3)CC2)CC1` [Example E59, 1-Isopropyl-4-[1-(4-difluoromethoxyphenyl)-piperidine-4-carbonyl]-[1,4]-diazepane] gave a Kb of less than 3.16 nM.

With `Cc1noc(-c2ccc(N3CCC(C(=O)N4CCN(C(C)C)CC4)CC3)cc2)n1` [Example E185, 1-Isopropyl-4-{1-[4-(3-methyl-1,2,4-oxadiazol-5-yl)phenyl]-piperidine-4-carbonyl}-piperazine], the Kb is less than 3.16 nM.

In the case of `CC(C)N1CCCN(C(=O)C2CCN(c3cnc(C(F)(F)F)nc3)CC2)CC1` [Example E198, 1-Isopropyl-4-[1-(2-trifluoromethylpyrimidin-5-yl)-piperidine-4-carbonyl]-[1,4]-diazepane], the antagonist equilibrium constant (Kb) was less than 3.16 nM.

For `CC(C)N1CCN(C(=O)C2CCN(c3ncc(-c4ccc(S(C)(=O)=O)cc4)cn3)CC2)CC1` [Example E25, 1-Isopropyl-4-{1-[5-(4-methylsulfonylphenyl)-pyrimidin-2-yl]-piperidine-4-carbonyl}-piperazine], the Kb was less than 3.16 nM.

As for `CC(C)N1CCCN(C(=O)C2CCN(c3ccc(C#N)cc3)CC2)CC1` [Example E38, 1-Isopropyl-4-[1-(4-cyanophenyl)-piperidine4-carbonyl]-[1,4]-diazepane], the Kb is less than 1 nM.

`CC(C)N1CCCN(C(=O)C2CCN(c3ccc(C#N)c4ccccc34)CC2)CC1` [Example E46, 1-Isopropyl-4-[1-(4-cyano-naphthalen-1-yl)-piperidine-4-carbonyl]-[1,4]-diazepane]: the Kb was less than 3.16 nM.

`CC(C)N1CCN(C(=O)C2CCN(c3ccc(C#N)cc3)CC2)CC1` [Example E2, 1-Isopropyl-4-[1-(4-cyanophenyl)-piperidine-4-carbonyl]-piperazine hydrochloride] showed a Kb of less than 1 nM.

In turn, `N#Cc1cc(N2CCC(C(=O)N3CCCN(C4CCC4)CC3)CC2)ccn1` [Example E137, 1-Cyclobutyl-4-[1-(2-cyanopyridin-4-yl)-piperidine-4-carbonyl]-[1,4]-diazepane] showed a Kb of less than 3.16 nM.

With `CC(C)N1CCN(C(=O)C2CCN(c3ccc(C(F)(F)F)nc3)CC2)C[C@@H]1C` [Example E79, (S)-1-Isopropyl-4-[1-(6-trifluoromethylpyridin-3-yl)-piperidine-4-carbonyl]-2-methyl piperazine], the Kb is less than 1 nM.

In turn, `COc1ccc(N2CCC(C(=O)N3CCCN(C(C)C)CC3)CC2)cn1` [Example E62, 1-Isopropyl-4-[1-(6-methoxypyridin-3-yl)-piperidine-4-carbonyl]-[1,4]-diazepane] had a Kb of less than 3.16 nM.

`CC(C)N1CCN(C(=O)C2CCN(c3ccc(C(F)(F)F)nc3)CC2)CC1` [Example E96, 1-Isopropyl-4-[1-(6-trifluoromethylpyridin-3-yl)-piperidine-4-carbonyl]-piperazine]: the antagonist dissociation constant (Kb) is less than 0.316 nM.

As to `N#Cc1ccc(N2CCC(C(=O)N3CCCN(C4CCC4)CC3)CC2)cc1C(F)(F)F` [Example E68, 1-Cyclobutyl-4-[1-(4-cyano-3-trifluoromethylphenyl)-piperidine4-carbonyl]-[1,4]-diazepane], the Kb is less than 3.16 nM.

`CC(C)N1CCN(C(=O)C2CCN(c3ccc4ncccc4c3)CC2)CC1` [Example E91, 1-Isopropyl-4-[1-(quinolin-6-yl)-piperidine4-carbonyl]piperazine] had a Kb of less than 3.16 nM.

`Cc1noc(-c2ccc(N3CCC(C(=O)N4CCCN(C(C)C)CC4)CC3)cc2)n1` [Example E168, 1-Isopropyl-4-{1-[4-(3-methyl-1,2,4-oxadiazol-5-yl)phenyl]-piperidine-4-carbonyl}-[1,4]-diazepane]: the Kb is less than 3.16 nM.

As for `CC(=O)c1ccc(N2CCC(C(=O)N3CCCN(C4CCC4)CC3)CC2)cc1` [Example E170, 1-Cyclobutyl-4-[1-(4-acetylphenyl)-piperidine-4-carbonyl]-[1,4]-diazepane], the Kb is less than 3.16 nM.

As for `CC(C)N1CCCN(C(=O)C2CCN(c3cnc(C(F)(F)F)cn3)CC2)CC1` [Example E139, 1-Isopropyl-4-[1-(5-trifluoromethylpyrazin-2-yl)-piperidine4-carbonyl]-[1,4]-diazepane], the Kb is less than 3.16 nM.

As to `N#Cc1ccc(N2CCC(C(=O)N3CCN(C4CCCC4)CC3)CC2)cc1` [Example E31, 1-Cyclopentyl-4-[1-(4cyano-phenyl)-piperidine-4-carbonyl]-piperazine hydrochloride], the Kb was less than 3.16 nM.

In turn, `CC(C)N1CCCN(C(=O)C2CCN(c3ccc(C#N)c(C(F)(F)F)c3)CC2)CC1` [Example E44, 1-Isopropyl4-[1-(4-cyano-3-trifluoromethyl-phenyl)-piperidine-4-carbonyl]-[1,4]-diazepane] showed a Kb of less than 3.16 nM.

With `CC(C)N1CCN(C(=O)C2CCN(c3ccc(C(F)(F)F)nn3)CC2)C[C@@H]1C` [Example E88, (S)-1-Isopropyl-4-[1-(6-trifluoromethyl-pyridazin-3-yl)-piperidine-4-carbonyl]-2-methyl piperazine], the Kb is less than 3.16 nM.

Turning to `Cc1ncc(-c2ccc(N3CCC(C(=O)N4CCCN(C(C)C)CC4)CC3)cc2)o1` [Example E154, 1-Isopropyl-4-{1-[4-(2-methyl-1,3-oxazol-5-yl)phenyl]-piperidine4-carbonyl}-[1,4]-diazepane], the Kb was less than 3.16 nM.

In turn, `CC(C)N1CCCN(C(=O)C2CCN(c3ccc(C#N)nc3)CC2)CC1` [Example E180, 1-Isopropyl-4-[1-(6-cyano-pyridin-3-yl)-piperidine-4-carbonyl]-[1,4]-diazepane] gave a Kb of less than 3.16 nM.
